Results taken from article PMC4685874, “Bromotyrosine-derived alkaloids from the Caribbean sponge Aplysina lacunosa” (Beilstein Journal of Organic Chemistry, 2015).
pIC50: −log10 of the molar value.

Columns and labels:
Type in all cases: cell-based
[1] = WST-1 cell proliferation (cytotoxicity) assay, KB-31; conditions: human, WST-1, incubated for 5 days
Method: (§1) The cytotoxicity was determined using WST-1 cell proliferation assays. Targeting cell lines are L929 mouse fibroblasts, KB-31 epidermoid carcinoma, and MCF-7 breast cancer cell lines which were incubated for 5 days with the test substances. The acute toxicity was determined using the FS4-LTM conditional immortalization human fibroblasts cell line which was incubated for 24 hours with the test compounds.

[2] = tested on: KB-31 epidermoid carcinoma cells; assay: as above; conditions: WST-1, incubated for 5 days
Method: as §1

[3] = tested on: MCF-7 breast cancer cell line; assay: WST-1 cell proliferation (cytotoxicity) assay, MCF-7; conditions: WST-1, incubated for 5 days
Method: as §1

[4] = as above; conditions: human, MCF-7 breast cancer cell line, WST-1, incubated for 5 days
Method: as §1

[5] = Acute toxicity, WST-1 assay, FS4-LTM; conditions: human, FS4-LTM conditionally immortalized fibroblasts, FS4-LTM conditional immortalization human fibroblasts, incubated for 24 hours; read-out: Cytotoxicity (acute toxicity) IC50 FS4-LTM
Method: as §1

[6] = tested on: FS4-LTM conditional immortalization human fibroblasts; assay: Acute toxicity, WST-1 assay, FS4-LTM; conditions: incubated for 24 hours, read-out: Cytotoxicity (acute toxicity) IC50 FS4-LTM
Method: as §1

[7] = WST-1 cell proliferation (cytotoxicity) assay, L929; conditions: L929 mouse fibroblasts, WST-1, incubated for 5 days
Method: as §1

[8] = KB-31 epidermoid carcinoma cells

COC1=C(Br)[C@H](O)[C@@]2(C=C1Br)CC(C(=O)NCCCOc1ccc([C@H](O)CNC(=O)C3=NO[C@]4(C=C(Br)C(OC)=C(Br)[C@@H]4O)C3)cc1Br)=NO2 [Compound 1, 14-debromo-11-deoxyfistularin-3]
IC50 at 5 days [1, 8]: 69 µM | pIC50 [2]: 4.16

COC1=C(Br)[C@H](O)[C@@]2(C=C1Br)CC(C(=O)NC[C@@H](O)c1cc(Br)c(OCCCNC(C)=O)c(Br)c1)=NO2 [Compound 2, aplysinin A]
IC50 at 5 days [1, 8]: 26 µM | pIC50 [2]: 4.59 | pIC50 [3]: 4.11 | IC50 at 5 days ([4]; MCF-7 breast cancer cells): 78 µM | IC50 at 24 hours [5]: 32 µM | pIC50 [6]: 4.49

COC1=C(Br)[C@H](O)[C@@]2(C=C1Br)CC(C(=O)NCCCOc1ccc(CCN)cc1Br)=NO2 [Compound 4, 14-debromoaraplysillin I]
IC50 at 5 days [7]: 94.3 µM | IC50 at 5 days ([4]; MCF-7 breast cancer cells): 78.6 µM

COC1=C(Br)[C@H](O)[C@@]2(C=C1Br)CC(C(=O)NCC(O)COc1c(Br)cc(C(O)CNC(=O)C3=NO[C@]4(C=C(Br)C(OC)=C(Br)[C@@H]4O)C3)cc1Br)=NO2 (stereo partly shown) [Compound 5, fistularin-3]
IC50 at 5 days [4]: 207 µM

COC1=C(Br)[C@H](O)[C@@]2(C=C1Br)CC(C(=O)NCCCOc1c(Br)cc(CCNC(=O)C3=NO[C@]4(C=C(Br)C(OC)=C(Br)[C@@H]4O)C3)cc1Br)=NO2 [Compound 6, 11,19-dideoxyfistularin-3]
IC50 at 5 days ([1]; KB-31 epidermoid carcinoma): 88.2 µM | IC50 at 5 days [7]: 118 µM

COC1=C(Br)[C@H](O)[C@@]2(C=C1Br)CC(C(=O)NCCc1cc(Br)c(OCC(O)CNC(=O)C3=NO[C@]4(C=C(Br)C(OC)=C(Br)[C@@H]4O)C3)c(Br)c1)=NO2 (stereo partly shown) [Compound 7, 19-deoxyfistularin-3]
IC50 at 5 days [4]: 60 µM

COC1=C(Br)[C@H](O)[C@@]2(C=C1Br)CC(C(=O)NCCCOc1c(Br)cc(C(O)CNC(=O)C3=NO[C@]4(C=C(Br)C(OC)=C(Br)[C@@H]4O)C3)cc1Br)=NO2 (stereo partly shown) [Compound 8, 11-deoxyfistularin-3]
IC50 at 5 days ([4]; MCF-7 breast cancer cells): 47.2 µM | IC50 at 24 hours [5]: 87.3 µM

COC1=C(Br)[C@H](O)[C@@]2(C=C1Br)CC(C(=O)NCCc1cc(Br)c(OCCCN)c(Br)c1)=NO2 [Compound 10, hexadellin B]
IC50 at 5 days ([4]; MCF-7 breast cancer cells): 90.6 µM | IC50 at 24 hours [5]: 73.4 µM

CNc1nc(CCCNC(=O)C2=NO[C@]3(C=C(Br)C(OC)=C(Br)[C@@H]3O)C2)c[nH]1 [Compound 15, N-methyl-aerophobin-2]
IC50 at 5 days [1, 8]: 48.9 µM | IC50 at 5 days [7]: 55.9 µM

COC1=C(Br)[C@@H]2OC(=O)C[C@]2(O)C=C1Br [Compound 16, aeroplysinin-2]
IC50 at 5 days [4]: 96.3 µM

COC(=O)Cc1cc(Br)c(O)c(Br)c1O [Compound 17, subereaphenol B]
IC50 at 5 days ([4]; MCF-7 breast cancer cells): 64.8 µM
